Laboratory results taken from ChEMBL document CHEMBL5380777, “Efficacy, Mechanism, and Structure-Activity Relationship of 6-Methoxy Benzofuran Derivatives as a Useful Tool for Senile Osteoporosis” (J Med Chem, 2023).
The source made the active and inactive calls. No cut-off for these calls is given here.

Assays:
Danio rerio [1] = organism: Danio rerio; assay: Anti osteoporosis activity in prednisone induced wildtype 3 days post-fertilization AB zebrafish osteoporosis model assessed as increase in bone fluorescence intensity (RVB = 13620 +/- 1692); assay type: functional
Cytochrome P450 2C9 = Cytochrome P450 2C9 (Homo sapiens, UniProt P11712); assay: Inhibition of CYP2C9 (unknown origin) using tolbutamide as substrate (reference value: 1.9 uM); assay type: ADME
Sequence of Cytochrome P450 2C9 (P11712 whole entry): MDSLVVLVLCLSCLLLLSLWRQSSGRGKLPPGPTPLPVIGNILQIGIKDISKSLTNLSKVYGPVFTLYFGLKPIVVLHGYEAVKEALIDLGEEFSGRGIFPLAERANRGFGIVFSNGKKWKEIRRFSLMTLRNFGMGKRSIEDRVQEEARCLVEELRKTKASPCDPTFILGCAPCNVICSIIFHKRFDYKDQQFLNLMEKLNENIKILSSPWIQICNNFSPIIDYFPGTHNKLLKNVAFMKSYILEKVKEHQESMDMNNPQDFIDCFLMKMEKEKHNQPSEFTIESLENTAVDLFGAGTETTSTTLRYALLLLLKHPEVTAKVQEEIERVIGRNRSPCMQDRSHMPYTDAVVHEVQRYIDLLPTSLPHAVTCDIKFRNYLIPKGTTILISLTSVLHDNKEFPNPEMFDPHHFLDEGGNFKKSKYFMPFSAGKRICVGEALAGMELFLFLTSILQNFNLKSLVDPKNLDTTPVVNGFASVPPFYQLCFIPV

[2] = AUC (0 to infinity) in Sprague-Dawley rat by measuring metabolite 6-methoxybenzofuran-2-carboxylic acid at 10 mg/kg, po; assay type: ADME, organism-based; design: dose 10 mg/kg, route po; details: in vivo
Cytochrome P450 3A4 [3] = molecular target: T1, Cytochrome P450 3A4 (Homo sapiens, UniProt P08684); assay: Inhibition of CYP3A4 (unknown origin) using testosterone as substrate (reference value: 0.0227 uM); assay type: ADME
T1 sequence (P08684 whole entry): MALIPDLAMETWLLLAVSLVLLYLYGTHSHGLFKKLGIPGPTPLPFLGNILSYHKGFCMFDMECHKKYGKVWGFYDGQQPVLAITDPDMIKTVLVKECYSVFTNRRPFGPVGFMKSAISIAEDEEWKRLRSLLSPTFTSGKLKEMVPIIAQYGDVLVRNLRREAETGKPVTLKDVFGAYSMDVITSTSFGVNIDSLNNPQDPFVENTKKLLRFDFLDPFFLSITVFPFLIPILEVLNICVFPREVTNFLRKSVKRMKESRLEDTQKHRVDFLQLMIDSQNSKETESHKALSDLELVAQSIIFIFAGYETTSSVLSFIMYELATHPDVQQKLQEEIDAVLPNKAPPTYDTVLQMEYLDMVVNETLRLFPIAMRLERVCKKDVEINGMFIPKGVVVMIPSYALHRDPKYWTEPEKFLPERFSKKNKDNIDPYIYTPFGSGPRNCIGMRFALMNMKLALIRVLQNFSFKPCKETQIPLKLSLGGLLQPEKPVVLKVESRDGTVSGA

[4] = Cmax in Sprague-Dawley rat by measuring metabolite 6-methoxybenzofuran-2-carboxylic acid at 10 mg/kg, po; assay type: ADME, organism-based; design: dose 10 mg/kg, route po; details: in vivo
MC3T3-E1 [5] = assay: Induction of ALP activity in mouse MC3T3-E1 cells in osteogenic differentiation culture at 1 uM measured on day 7; assay type: functional, cell-based; details: time 7.0 day
[6] = Half life in Sprague-Dawley rat by measuring metabolite 6-methoxybenzofuran-2-carboxylic acid at 10 mg/kg, po; assay type: ADME, organism-based; details: in vivo
[7] = Volume of distribution at steady state in Sprague-Dawley rat by measuring metabolite 6-methoxybenzofuran-2-carboxylic acid at 2 mg/kg, iv; assay type: ADME, organism-based; details: in vivo
Cytochrome P450 2C19 = Cytochrome P450 2C19 (Homo sapiens, UniProt P33261); assay: Inhibition of CYP2C19 (unknown origin) using mephenytoin as substrate (reference value: 2.77 uM); assay type: ADME
Sequence of Cytochrome P450 2C19 (P33261 whole entry): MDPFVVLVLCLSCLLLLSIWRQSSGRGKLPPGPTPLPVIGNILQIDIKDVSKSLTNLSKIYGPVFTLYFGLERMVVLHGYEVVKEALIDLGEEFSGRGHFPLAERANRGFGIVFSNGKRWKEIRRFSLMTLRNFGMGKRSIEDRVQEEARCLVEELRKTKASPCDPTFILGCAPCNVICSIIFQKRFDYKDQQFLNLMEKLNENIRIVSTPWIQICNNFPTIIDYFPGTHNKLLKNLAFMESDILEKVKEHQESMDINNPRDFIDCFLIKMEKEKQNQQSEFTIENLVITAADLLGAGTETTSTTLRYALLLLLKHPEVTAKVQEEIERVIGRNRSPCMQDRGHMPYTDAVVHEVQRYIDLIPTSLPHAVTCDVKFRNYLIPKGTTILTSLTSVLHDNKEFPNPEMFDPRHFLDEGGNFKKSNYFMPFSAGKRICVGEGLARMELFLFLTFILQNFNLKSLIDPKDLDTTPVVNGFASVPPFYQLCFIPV

[8] = Permeability from apical to basolateral side in human Caco-2 cells assessed as recovery incubated upto 95 mins by LC-MS/MS analysis relative control; assay type: ADME, cell-based; details: read-out: Drug recovery
[9] = Tmax in Sprague-Dawley rat by measuring metabolite 6-methoxybenzofuran-2-carboxylic acid at 10 mg/kg, po; assay type: ADME, organism-based; details: in vivo
hERG (KCNH2) [10] = molecular target: T2, hERG (KCNH2) (Homo sapiens, UniProt Q12809); assay: Inhibition of human ERG stably expressed in CHO cells at 0.3 uM by whole-cell patch clamp method relative to control; assay type: toxicity, cell-based; details: CHO cells stably expressing human ERG
T2 sequence (Q12809 whole entry): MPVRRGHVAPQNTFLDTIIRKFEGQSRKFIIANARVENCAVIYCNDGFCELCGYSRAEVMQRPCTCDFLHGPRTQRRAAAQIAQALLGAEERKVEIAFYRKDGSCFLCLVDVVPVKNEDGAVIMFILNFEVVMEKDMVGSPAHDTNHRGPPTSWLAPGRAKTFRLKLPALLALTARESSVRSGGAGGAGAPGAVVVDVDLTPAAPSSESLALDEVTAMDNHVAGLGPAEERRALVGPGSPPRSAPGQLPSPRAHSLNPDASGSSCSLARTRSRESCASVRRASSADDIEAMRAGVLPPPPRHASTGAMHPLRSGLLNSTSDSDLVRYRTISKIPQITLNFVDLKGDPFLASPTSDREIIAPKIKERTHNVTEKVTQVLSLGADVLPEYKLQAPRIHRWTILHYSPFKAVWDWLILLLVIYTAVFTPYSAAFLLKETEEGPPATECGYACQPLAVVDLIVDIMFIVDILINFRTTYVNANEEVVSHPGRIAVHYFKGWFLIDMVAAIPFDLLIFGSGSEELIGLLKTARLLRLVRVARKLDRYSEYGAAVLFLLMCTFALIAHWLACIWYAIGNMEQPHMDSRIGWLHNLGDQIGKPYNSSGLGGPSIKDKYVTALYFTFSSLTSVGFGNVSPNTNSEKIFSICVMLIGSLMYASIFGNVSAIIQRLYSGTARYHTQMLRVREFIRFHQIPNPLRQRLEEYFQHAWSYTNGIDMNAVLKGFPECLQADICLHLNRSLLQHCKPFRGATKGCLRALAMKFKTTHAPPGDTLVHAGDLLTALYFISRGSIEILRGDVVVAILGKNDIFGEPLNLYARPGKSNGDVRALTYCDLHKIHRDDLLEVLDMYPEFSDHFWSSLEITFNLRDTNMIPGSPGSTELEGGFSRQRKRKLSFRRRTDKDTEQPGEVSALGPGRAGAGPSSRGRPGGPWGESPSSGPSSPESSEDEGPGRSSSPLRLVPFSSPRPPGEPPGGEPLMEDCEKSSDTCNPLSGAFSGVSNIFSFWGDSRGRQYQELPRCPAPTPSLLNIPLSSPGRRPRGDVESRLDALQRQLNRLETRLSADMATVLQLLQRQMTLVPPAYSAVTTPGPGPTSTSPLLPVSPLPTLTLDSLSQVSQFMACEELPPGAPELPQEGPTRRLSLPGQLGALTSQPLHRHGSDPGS

Danio rerio [11] = organism: Danio rerio; assay: Anti osteoporosis activity in prednisone induced wildtype 3 days post-fertilization AB zebrafish osteoporosis model assessed as increase in osteoblast by measuring fluorescence intensity; assay type: functional, organism-based; details: dose 0.078-1.25 µM
Danio rerio [12] = organism: Danio rerio; assay: Anti osteoporosis activity in prednisone induced wildtype 3 days post-fertilization AB zebrafish osteoporosis model assessed as increase in bone mass at 1.25 uM relative to normal control group; assay type: functional, organism-based
[13] = AUC (0 to t) in Sprague-Dawley rat by measuring metabolite 6-methoxybenzofuran-2-carboxylic acid at 10 mg/kg, po; assay type: ADME, organism-based; design: dose 10 mg/kg, route po; details: in vivo
hERG (KCNH2) [14] = molecular target: T2, hERG (KCNH2); assay: Inhibition of human ERG stably expressed in CHO cells at 10 uM by whole-cell patch clamp method relative to control; assay type: toxicity, cell-based; details: CHO cells stably expressing human ERG
Cytochrome P450 3A4 [15] = molecular target: T1, Cytochrome P450 3A4; assay: Inhibition of CYP3A4 (unknown origin) using midazolam as substrate (reference value: 0.0413 uM); assay type: ADME
[16] = MRT (0 to infinity) in Sprague-Dawley rat by measuring metabolite 6-methoxybenzofuran-2-carboxylic acid at 2 mg/kg, iv; assay type: ADME, organism-based; details: in vivo
[17] = Efflux ratio of apparent permeability from basolateral side to apical side over apical side to basolateral side in human Caco-2 cells; assay type: ADME, cell-based
[18] = AUC (0 to infinity) in Sprague-Dawley rat by measuring metabolite 6-methoxybenzofuran-2-carboxylic acid at 2 mg/kg, iv; assay type: ADME, organism-based; design: dose 2 mg/kg, route iv; details: in vivo
[19] = Cmax in Sprague-Dawley rat by measuring metabolite 6-methoxybenzofuran-2-carboxylic acid at 2 mg/kg, iv; assay type: ADME, organism-based; design: dose 2 mg/kg, route iv; details: in vivo
[20] = Apparent permeability from basolateral to apical side in human Caco-2 cells incubated upto 95 mins by LC-MS/MS analysis; assay type: ADME, cell-based; details: read-out: permeability
[21] = Half life in Sprague-Dawley rat by measuring metabolite 6-methoxybenzofuran-2-carboxylic acid at 2 mg/kg, iv; assay type: ADME, organism-based; details: in vivo
Danio rerio [22] = organism: Danio rerio; assay: Anti osteoporosis activity in prednisone induced wildtype 3 days post-fertilization AB zebrafish osteoporosis model assessed as increase in bone mass; assay type: functional, organism-based; details: dose 0.078-1.25 µM
[23] = MRT (0 to infinity) in Sprague-Dawley rat by measuring metabolite 6-methoxybenzofuran-2-carboxylic acid at 10 mg/kg, po; assay type: ADME, organism-based; details: in vivo
Cytochrome P450 1A2 = molecular target: T3, Cytochrome P450 1A2 (Homo sapiens, UniProt P05177); assay: Inhibition of CYP1A2 (unknown origin) using phenacetin as substrate (reference value: 0.0292 uM); assay type: ADME
T3 sequence (P05177 whole entry): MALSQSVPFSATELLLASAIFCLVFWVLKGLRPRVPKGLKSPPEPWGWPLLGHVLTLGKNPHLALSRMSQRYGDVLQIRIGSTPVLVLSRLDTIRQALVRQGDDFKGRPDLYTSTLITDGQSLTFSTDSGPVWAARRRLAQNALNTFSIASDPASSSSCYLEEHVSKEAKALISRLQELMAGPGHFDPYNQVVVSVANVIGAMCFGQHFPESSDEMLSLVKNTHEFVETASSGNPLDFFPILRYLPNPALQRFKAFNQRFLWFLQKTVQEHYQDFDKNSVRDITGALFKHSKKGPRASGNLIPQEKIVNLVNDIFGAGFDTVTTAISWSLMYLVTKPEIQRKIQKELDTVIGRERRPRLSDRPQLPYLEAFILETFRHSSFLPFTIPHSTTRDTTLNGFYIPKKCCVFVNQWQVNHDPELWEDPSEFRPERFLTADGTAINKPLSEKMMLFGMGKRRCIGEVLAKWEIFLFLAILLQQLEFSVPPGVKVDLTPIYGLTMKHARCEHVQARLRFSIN

[24] = Permeability from basolateral to apical side in human Caco-2 cells assessed as recovery incubated upto 95 mins by LC-MS/MS analysis relative control; assay type: ADME, cell-based; details: read-out: Drug recovery
hERG (KCNH2) [25] = molecular target: T2, hERG (KCNH2); assay: Inhibition of human ERG stably expressed in CHO cells at 1 uM by whole-cell patch clamp method relative to control; assay type: toxicity, cell-based; details: CHO cells stably expressing human ERG
hERG (KCNH2) [26] = molecular target: T2, hERG (KCNH2); assay: Inhibition of human ERG stably expressed in CHO cells at 0.1 uM by whole-cell patch clamp method relative to control; assay type: toxicity, cell-based; details: CHO cells stably expressing human ERG
hERG (KCNH2) [27] = molecular target: T2, hERG (KCNH2); assay: Inhibition of human ERG stably expressed in CHO cells at 3 uM by whole-cell patch clamp method relative to control; assay type: toxicity, cell-based; details: CHO cells stably expressing human ERG
[28] = AUC (0 to t) in Sprague-Dawley rat by measuring metabolite 6-methoxybenzofuran-2-carboxylic acid at 2 mg/kg, iv; assay type: ADME, organism-based; design: dose 2 mg/kg, route iv; details: in vivo
Cytochrome P450 2D6 = Cytochrome P450 2D6 (Homo sapiens, UniProt P10635); assay: Inhibition of CYP2D6 (unknown origin) using dextromethorphan as substrate (reference value: 0.0445 uM); assay type: ADME
Sequence of Cytochrome P450 2D6 (P10635 whole entry): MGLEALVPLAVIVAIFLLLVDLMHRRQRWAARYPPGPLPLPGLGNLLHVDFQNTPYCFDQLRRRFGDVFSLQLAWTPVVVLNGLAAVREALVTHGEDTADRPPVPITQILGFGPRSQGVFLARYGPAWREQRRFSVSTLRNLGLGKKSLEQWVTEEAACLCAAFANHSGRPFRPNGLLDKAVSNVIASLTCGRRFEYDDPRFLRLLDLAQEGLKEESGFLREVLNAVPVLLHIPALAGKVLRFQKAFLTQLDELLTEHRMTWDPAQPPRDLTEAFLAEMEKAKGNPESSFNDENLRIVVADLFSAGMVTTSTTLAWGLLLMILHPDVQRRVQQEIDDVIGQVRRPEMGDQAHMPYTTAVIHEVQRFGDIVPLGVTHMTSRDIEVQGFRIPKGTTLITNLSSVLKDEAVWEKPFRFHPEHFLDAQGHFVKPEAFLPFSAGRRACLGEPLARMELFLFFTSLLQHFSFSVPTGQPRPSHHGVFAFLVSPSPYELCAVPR

[29] = Oral bioavailability in Sprague-Dawley rat by measuring metabolite 6-methoxybenzofuran-2-carboxylic acid at 10 mg/kg; assay type: ADME, organism-based; details: in vivo
[30] = Apparent permeability from apical to basolateral side in human Caco-2 cells incubated upto 95 mins by LC-MS/MS analysis; assay type: ADME, cell-based; details: read-out: permeability
Danio rerio [31] = organism: Danio rerio; assay: Anti osteoporosis activity in prednisone induced wildtype 3 days post-fertilization AB zebrafish osteoporosis model assessed as increase in bone fluorescence intensity; assay type: functional, organism-based; details: dose 0.078-1.25 µM
MC3T3-E1 [32] = assay: Cytotoxicity against mouse MC3T3-E1 cells; assay type: toxicity, cell-based

COc1ccc2cc(C(=O)N3CCN(C)CC3)oc2c1
Flu intensity (Danio rerio [1]): 23902

COc1ccc2cc(C(=O)NCC(=O)NCCN3CCCC3)oc2c1
Flu intensity (Danio rerio [1]): 21953

COc1ccc2cc(C(=O)NCCN3CCCC3)oc2c1
Flu intensity (Danio rerio [1]): 20961

COc1ccc2cc(C(=O)N3CCC(c4ccc(F)cc4)CC3)oc2c1
Flu intensity (Danio rerio [1]): 13963

COc1ccc2cc(C(=O)NCCN3CCCCC3)oc2c1
Flu intensity (Danio rerio [1]): 23225

COc1ccc2cc(C(=O)OCCN3CCOCC3)oc2c1
IC50 (Cytochrome P450 2C9): > 25 µM
AUCt [2]: 25873 ng·h/mL
IC50 (Cytochrome P450 3A4 [3]): > 25 µM
Cmax [4]: 10380 ng/mL
Activity (MC3T3-E1 [5]): Active
t1/2 [6]: 3.07 h
Vdss [7]: 0.545 L/kg
IC50 (Cytochrome P450 2C19): > 25 µM
recovery at 1.583 h [8]: 22.7%
Tmax [9]: 0.25 h
inhibition at 0.3 µM (hERG (KCNH2) [10]): 2.36%
Activity (Danio rerio [11]): Dose-Dependent Effect
Activity (Danio rerio [12]): Active
AUCt [13]: 25724 ng·h/mL
inhibition at 10 µM (hERG (KCNH2) [14]): 20.6%
IC50 (Cytochrome P450 3A4 [15]): > 25 µM
MRT [16]: 1.25 h
efflux ratio [17]: 1.65
Flu intensity (Danio rerio [1]): 33746
AUC [18]: 4635 ng·h/mL
Cmax [19]: 3943 ng/mL
Papp B→A at 1.583 h [20]: 5.53 ×10⁻⁶ cm/s
t1/2 [21]: 2.15 h
Activity (Danio rerio [22]): Dose-Dependent Effect
MRT [23]: 2.26 h
IC50 (Cytochrome P450 1A2): 17 µM
recovery at 1.583 h [24]: 74.3%
inhibition at 1 µM (hERG (KCNH2) [25]): 6.15%
inhibition at 0.1 µM (hERG (KCNH2) [26]): 4.69%
inhibition at 3 µM (hERG (KCNH2) [27]): 9.81%
AUC [28]: 4557 ng·h/mL
IC50 (Cytochrome P450 2D6): > 25 µM
F [29]: 113%
Papp A→B at 1.583 h [30]: 3.35 ×10⁻⁶ cm/s
Activity (Danio rerio [31]): Dose-Dependent Effect

COc1ccc2cc(C(=O)N[C@H](C)C(=O)O)oc2c1
Flu intensity (Danio rerio [1]): 17768

CCN(CC)CCCNC(=O)c1cc2ccc(OC)cc2o1
Activity (MC3T3-E1 [5]): Active
Flu intensity (Danio rerio [1]): 31394

COc1ccc2cc(C(=O)NCC(=O)O)oc2c1
Flu intensity (Danio rerio [1]): 22567

COc1ccc2cc(C(=O)NCC(=O)NCCN3CCCCC3)oc2c1
Activity (MC3T3-E1 [5]): Active
Flu intensity (Danio rerio [1]): 31141

COc1ccc2cc(C(=O)N3CCC(O)CC3)oc2c1
Flu intensity (Danio rerio [1]): 20648

COc1ccc2cc(C(=O)N[C@H](CC(C)C)C(=O)O)oc2c1
Flu intensity (Danio rerio [1]): 20236

COc1ccc2cc(C(=O)NCC(=O)NCCN(C)C)oc2c1
Flu intensity (Danio rerio [1]): 23919

COc1cc(N)c(Cl)cc1C(=O)NC1CCN(CCCOc2ccc(F)cc2)CC1OC (stereo not drawn) [CISAPRIDE]
inhibition at 0.3 µM (hERG (KCNH2) [10]): 98.2%

COc1ccc2cc(C(=O)NCCN3CCN(C)CC3)oc2c1
Flu intensity (Danio rerio [1]): 25904

COc1ccc2cc(C(=O)OCCN3CCN(C)CC3)oc2c1
Flu intensity (Danio rerio [1]): 23765

COc1ccc2cc(C(=O)NCCN3CCOCC3)oc2c1
Flu intensity (Danio rerio [1]): 26682

COc1ccc2cc(C(=O)NCCCN(C)C)oc2c1
Flu intensity (Danio rerio [1]): 18114

COc1ccc2cc(C(=O)N3CCC(c4ccncc4)CC3)oc2c1
Flu intensity (Danio rerio [1]): 30379
Activity (MC3T3-E1 [32]): Toxic

COc1ccc2cc(C(=O)OCCN3CCCC3)oc2c1
Flu intensity (Danio rerio [1]): 24697

COc1ccc2cc(C(=O)OCCN3CCCCC3)oc2c1
Flu intensity (Danio rerio [1]): 23536

COc1ccc2cc(C(=O)NCC(=O)OCCN(C)C)oc2c1
Flu intensity (Danio rerio [1]): 26758

COc1ccc2cc(C(=O)NCCCCN(C)C)oc2c1
Flu intensity (Danio rerio [1]): 25439

COc1ccc2cc(C(=O)N[C@H](Cc3ccccc3)C(=O)O)oc2c1
Flu intensity (Danio rerio [1]): 27422

CCN(CC)CCCCNC(=O)c1cc2ccc(OC)cc2o1
Flu intensity (Danio rerio [1]): 21289

COc1ccc2cc(C(=O)NCCN3CCNCC3)oc2c1
Flu intensity (Danio rerio [1]): 21709

COc1ccc2cc(C(=O)N3CCC(C(F)(F)F)CC3)oc2c1
Flu intensity (Danio rerio [1]): 16975

COc1ccc2cc(C(=O)N[C@@H](C(=O)O)C(C)C)oc2c1
Activity (MC3T3-E1 [5]): Active
Flu intensity (Danio rerio [1]): 30880

CC(O)(P(=O)([O-])O)P(=O)([O-])O.[Na+].[Na+] [ETIDRONATE DISODIUM]
Flu intensity (Danio rerio [1]): 23897

COc1ccc2cc(C(=O)NC3CCC(O)CC3)oc2c1 (stereo not drawn)
Flu intensity (Danio rerio [1]): 25882
